The values that follow come from patent EP2929883A1, “Pyrazole derivatives as dihydroorotate dehydrogenase (DHODH) inhibitors” (INSTITUT PASTEUR, priority 2014, dated 2015).

Converted amounts (≈) assume the structure as drawn.

The test system of this test is measles virus. Description: microbe, parasite or virus in culture. The note with it: Measles morbillivirus, 24 h.
`CCOc1nn(-c2ncc(CC)c(C)n2)c(C)c1Cc1ccccc1` [example 175, 2-(4-benzyl-3-ethoxy-5-methyl-1H-pyrazol-1-yl)-5-ethyl-4-methylpyrimidine] returned an MIC50 of 0.0005 to 0.05 µM (≈ 0.000168 to 0.0168 µg/mL).
Then `CCOc1c(Cc2ccccc2)c(C)nn1-c1ncc(CC)cn1` [example 26, 2-(4-benzyl-5-ethoxy-3-methyl-1H-pyrazol-1-yl)-5-ethylpyrimidine], with 0.5 to 5 µM (≈ 0.161 to 1.61 µg/mL); and `CCc1cnc(-n2nc(OC(C)C)c(Oc3c(F)cccc3F)c2C)nc1O` [example 117, 2-(4-(2,6-difluorophenoxy)-3-isopropoxy-5-methyl-1H-pyrazol-1-yl)-5-ethylpyrimidin-4-ol], with 0.0005 to 0.05 µM (≈ 0.000195 to 0.0195 µg/mL).
Then `CCOc1nn(-c2ccc(C3CC3)cn2)c(C)c1-c1ccccc1` [example 161A, 5-cyclopropyl-2-(3-ethoxy-5-methyl-4-phenyl-1H-pyrazol-1-yl)pyridine], with 0.5 to 5 µM (≈ 0.16 to 1.6 µg/mL); and `COc1ccc(-n2nc(OC(C)C)c(Oc3c(F)cccc3F)c2C)cn1` [example 130, 5-(4-(2,6-difluorophenoxy)-3-isopropoxy-5-methyl-1H-pyrazol-1-yl)-2-methoxypyridine], with 0.5 to 5 µM (≈ 0.188 to 1.88 µg/mL); and `CCOc1nn(-c2ccc(C3CC3)cn2)c(C)c1Oc1cccc(Cl)c1Cl` [example 49, 5-cyclopropyl-2-(4-(2,3-dichlorophenoxy)-3-ethoxy-5-methyl-1H-pyrazol-1-yl)pyridine], with 0.0005 to 0.05 µM (≈ 0.000202 to 0.0202 µg/mL).
Take `Cc1c(Oc2c(F)cccc2F)c(OC(C)C)nn1-c1ccc(C(C)(C)O)cn1` [example 84, 2-(6-(4-(2,6-difluorophenoxy)-3-isopropoxy-5-methyl-1H-pyrazol-1-yl)pyridin-3-yl)propan-2-ol]: the MIC50 lay in the range of 0.05 to 0.5 µM (≈ 0.0202 to 0.202 µg/mL).
Then `CCCc1cnc(-n2nc(OC(C)C)c(Oc3c(F)cccc3F)c2C)c(F)c1` [example 190A, 2-(4-(2,6-difluorophenoxy)-3-isopropoxy-5-methyl-1H-pyrazol-1-yl)-3-fluoro-5-propylpyridine], with 0.05 to 0.5 µM (≈ 0.0203 to 0.203 µg/mL).
Then `Cc1ccc(-n2nc(OC(C)C)c(Oc3c(F)cccc3F)c2C)cn1` [example 128, 5-(4-(2,6-difluorophenoxy)-3-isopropoxy-5-methyl-1H-pyrazol-1-yl)-2-methylpyridine], with 0.0005 to 0.05 µM (≈ 0.00018 to 0.018 µg/mL).
Compound `CCOc1nn(-c2ccc(C3CC3)cn2)c(C)c1Oc1cccc(C(F)(F)F)c1` [example 93, 5-cyclopropyl-2-(3-ethoxy-5-methyl-4-(3-(trifluoromethyl)phenoxy)-1H-pyrazol-1-yl)pyridine] gave an MIC50 of 0.05 to 0.5 µM (≈ 0.0202 to 0.202 µg/mL).
Then `CCOc1nn(-c2ncc(CC)cn2)c(C)c1-c1ccccc1` [example 153, 2-(3-ethoxy-5-methyl-4-phenyl-1H-pyrazol-1-yl)-5-ethylpyrimidine], with 0.5 to 5 µM (≈ 0.154 to 1.54 µg/mL); and `CCOc1ccc(-n2nc(OC(C)C)c(Oc3c(F)cccc3F)c2C)nn1` [example 174A, 3-(4-(2,6-difluorophenoxy)-3-isopropoxy-5-methyl-1H-pyrazol-1-yl)-6-ethoxypyridazine], with 0.05 to 0.5 µM (≈ 0.0195 to 0.195 µg/mL).
Then `Cc1c(Oc2c(F)cccc2F)c(OC(C)C)nn1-c1ncc(Br)cc1F` [example 86, 5-bromo-2-(4-(2,6-difluorophenoxy)-3-isopropoxy-5-methyl-1H-pyrazol-1-yl)-3-fluoropyridine], with 0.05 to 0.5 µM (≈ 0.0221 to 0.221 µg/mL); and `CCCCCc1cnc(-n2nc(OCC)c(Cc3ccccc3)c2C)nc1` [example 28, 2-(4-benzyl-3-ethoxy-5-methyl-1H-pyrazol-1-yl)-5-pentylpyrimidine], with above 5 µM; and `Cc1c(Oc2c(F)cccc2F)c(OC(C)C)nn1-c1ccccn1` [example 4, 2-(4-(2,6-difluorophenoxy)-3-isopropoxy-5-methyl-1H-pyrazol-1-yl)pyridine], with above 5 µM.
Then `Cc1c(Oc2c(F)cccc2F)c(OC(C)C)nn1-c1ncc(C2CC2)cc1C#N` [example 46, 5-cyclopropyl-2-(4-(2,6-difluorophenoxy)-3-isopropoxy-5-methyl-1H-pyrazol-1-yl)nicotinonitrile], with 0.0005 to 0.05 µM (≈ 0.000205 to 0.0205 µg/mL).
Take `CCOc1nn(-c2ccccn2)c(C)c1-c1ccc(C(F)(F)F)cc1` [example 159, 2-(3-ethoxy-5-methyl-4-(4-(trifluoromethyl)phenyl)-1H-pyrazol-1-yl)pyridine]: the MIC50 is above 5 µM.
Compound `CCc1cnc(-n2nc(OC(C)C)c(Oc3ccccc3F)c2C)nc1` [example 50, 5-ethyl-2-(4-(2-fluorophenoxy)-3-isopropoxy-5-methyl-1H-pyrazol-1-yl)pyrimidine] returned an MIC50 of 0.0005 to 0.05 µM (≈ 0.000178 to 0.0178 µg/mL).
`CCOc1nn(-c2ccc(C)cn2)c(C)c1Cc1ccccc1` [example 31, 2-(4-benzyl-3-ethoxy-5-methyl-1H-pyrazol-1-yl)-5-methylpyridine] had an MIC50 of 0.5 to 5 µM (≈ 0.154 to 1.54 µg/mL).
Then `Cc1c(Oc2ccccc2F)c(OC(C)C)nn1-c1ncc(C2CC2)cn1` [example 51, 5-cyclopropyl-2-(4-(2-fluorophenoxy)-3-isopropoxy-5-methyl-1H-pyrazol-1-yl)pyrimidine], with 0.0005 to 0.05 µM (≈ 0.000184 to 0.0184 µg/mL).
As for `CCOc1cc(C(=O)c2ccc(Cl)cc2)n(-c2ccccn2)n1` [example 149, (4-chlorophenyl)(3-ethoxy-1-(pyridin-2-yl)-1H-pyrazol-5-yl)methanone], the MIC50 was above 5 µM.
Then `CCc1cnc(-n2nc(OC(C)C)c(Cc3ccccc3F)c2C)nc1` [example 23, 5-ethyl-2-(4-(2-fluorobenzyl)-3-isopropoxy-5-methyl-1H-pyrazol-1-yl)pyrimidine], with 0.0005 to 0.05 µM (≈ 0.000177 to 0.0177 µg/mL); and `CCOc1nn(-c2ccccc2)c(C)c1Cc1ccccc1` [example 134, 4-benzyl-3-ethoxy-5-methyl-1-phenyl-1H-pyrazole], with 0.5 to 5 µM (≈ 0.146 to 1.46 µg/mL); and `CCOc1nn(-c2ccc(C3CC3)cn2)c(C)c1Cc1ccccc1` [example 172, 2-(4-benzyl-3-ethoxy-5-methyl-1H-pyrazol-1-yl)-5-cyclopropylpyridine], with 0.05 to 0.5 µM (≈ 0.0167 to 0.167 µg/mL).
The compound `Cc1c(Oc2c(F)cccc2F)c(OC(C)C)nn1-c1ncc(C2CC2)cc1OCc1ccccc1` [example 186, 3-(benzyloxy)-5-cyclopropyl-2-(4-(2,6-difluorophenoxy)-3-isopropoxy-5-methyl-1H-pyrazol-1-yl)pyridine] returned an MIC50 of 0.05 to 0.5 µM (≈ 0.0246 to 0.246 µg/mL).
Then `CCOc1nn(-c2ccc(C3CC3)cn2)c(C)c1Oc1ccccc1F` [example 68, 5-cyclopropyl-2-(3-ethoxy-4-(2-fluorophenoxy)-5-methyl-1H-pyrazol-1-yl)pyridine], with 0.0005 to 0.05 µM (≈ 0.000177 to 0.0177 µg/mL); and `CCc1cnc(-n2nc(OCCCN(C)C)c(Cc3ccccc3)c2C)nc1` [example 140, 3-(4-benzyl-1-(5-ethylpyrimidin-2-yl)-5-methyl-1H-pyrazol-3-yloxy)-N,N-dimethylpropan-1-amine], with 0.5 to 5 µM (≈ 0.19 to 1.9 µg/mL); and `Cc1c(Oc2c(F)cccc2F)c(OC(C)C)nn1-c1cnc(Br)cn1` [example 48, 2-bromo-5-(4-(2,6-difluorophenoxy)-3-isopropoxy-5-methyl-1H-pyrazol-1-yl)pyrazine], with 0.5 to 5 µM (≈ 0.213 to 2.13 µg/mL).
`Cc1nn(-c2ncc(C3CC3)cn2)c(OC(C)C)c1Cc1ccccc1` [example 22, 2-(4-benzyl-5-isopropoxy-3-methyl-1H-pyrazol-1-yl)-5-cyclopropylpyrimidine] came in with an MIC50 of 0.05 to 0.5 µM (≈ 0.0174 to 0.174 µg/mL).
Compound `CCOc1nn(-c2ccc(C(F)(F)F)cn2)c(C)c1Cc1ccccc1` [example 38, 2-(4-benzyl-3-ethoxy-5-methyl-1H-pyrazol-1-yl)-5-(trifluoromethyl)pyridine] yielded an MIC50 of 0.5 to 5 µM (≈ 0.181 to 1.81 µg/mL).
With `COc1cnc(-n2nc(OC(C)C)c(Oc3c(F)cccc3F)c2C)nc1` [example 62, 2-(4-(2,6-difluorophenoxy)-3-isopropoxy-5-methyl-1H-pyrazol-1-yl)-5-methoxypyrimidine] the figure was 0.0005 to 0.05 µM (≈ 0.000188 to 0.0188 µg/mL); with `CC(C)Oc1nn(-c2ccc(C3CC3)cn2)cc1Oc1ccccc1F` [example 65, 5-cyclopropyl-2-(4-(2-fluorophenoxy)-3-isopropoxy-1H-pyrazol-1-yl)pyridine], 0.0005 to 0.05 µM (≈ 0.000177 to 0.0177 µg/mL); with `Cc1c(Cc2ccccc2)c(OC(C)C)nn1-c1ccccn1` [example 165, 2-(4-benzyl-3-isopropoxy-5-methyl-1H-pyrazol-1-yl)pyridine], above 5 µM.
On to `CCc1cnc(-n2nc(OC(C)C)c(Oc3ccc(F)cc3F)c2C)nc1` [example 61, 2-(4-(2,4-difluorophenoxy)-3-isopropoxy-5-methyl-1H-pyrazol-1-yl)-5-ethylpyrimidine], for which the MIC50 was in the range of 0.0005 to 0.05 µM (≈ 0.000187 to 0.0187 µg/mL).
The compound `CCc1cnc(-n2nc(OC(C)C)c(Cc3ccccc3)c2C)nc1` [example 139, 2-(4-benzyl-3-isopropoxy-5-methyl-1H-pyrazol-1-yl)-5-ethylpyrimidine] returned an MIC50 of 0.0005 to 0.05 µM (≈ 0.000168 to 0.0168 µg/mL).
Then `Cc1ccc(-n2nc(OC(C)C)c(Oc3c(F)cccc3F)c2C)nc1` [example 9A, 2-(4-(2,6-difluorophenoxy)-3-isopropoxy-5-methyl-1H-pyrazol-1-yl)-5-methylpyridine], with 0.0005 to 0.05 µM (≈ 0.00018 to 0.018 µg/mL).
With `CCOc1nn(-c2ncc(C3CC3)cn2)c(C)c1Cc1ccccc1` [example 29, 2-(4-benzyl-3-ethoxy-5-methyl-1H-pyrazol-1-yl)-5-cyclopropylpyrimidine] the figure was 0.0005 to 0.05 µM (≈ 0.000167 to 0.0167 µg/mL).
Then `CCOc1nn(-c2ccc(C3CC3)cn2)c(C)c1I` [example 108, 5-cyclopropyl-2-(3-ethoxy-4-iodo-5-methyl-1H-pyrazol-1-yl)pyridine], with above 5 µM; and `CCOc1nn(-c2ncc(CC)cn2)c(C)c1Oc1cc(Cl)cc(Cl)c1` [example 79, 2-(4-(3,5-dichlorophenoxy)-3-ethoxy-5-methyl-1H-pyrazol-1-yl)-5-ethylpyrimidine], with 0.5 to 5 µM (≈ 0.197 to 1.97 µg/mL); and `CCOc1nn(-c2ccc(C(C)=O)cn2)c(C)c1Cc1ccccc1` [example 88, 1-(6-(4-benzyl-3-ethoxy-5-methyl-1H-pyrazol-1-yl)pyridin-3-yl)ethanone], with above 5 µM.
In turn, `Cc1c(Oc2cccnc2)c(OC(C)C)nn1-c1ncc(C2CC2)cn1` [example 110, 5-cyclopropyl-2-(3-isopropoxy-5-methyl-4-(pyridin-3-yloxy)-1H-pyrazol-1-yl)pyrimidine] gave an MIC50 of 0.5 to 5 µM (≈ 0.176 to 1.76 µg/mL).
With `COc1cccc(Cc2cc(OC)nn2-c2ccccn2)c1` [example 148, 2-(3-methoxy-5-(3-methoxybenzyl)-1H-pyrazol-1-yl)pyridine] the figure was above 5 µM.
